Measured values taken from PubChem BioAssay (NCI).
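Five concentrations, 48 hours, 96-well plates. Here, GI50 denotes the concentration required for 50% inhibition of growth. Definition used: TGI = concentration required for complete inhibition of growth.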

Columns and labels:
Experiment in all cases: NCI anticancer screen, dose series, 48 h
SK-OV-3 ovarian = system: SK-OV-3 ovarian
HCT-116 colon = system: HCT-116 colon
CAKI-1 renal = system: CAKI-1 renal
A498 renal = system: A498 renal
NCI-H226 lung = system: NCI-H226 lung
SR leukemia = system: SR leukemia
NCI-H23 lung = system: NCI-H23 lung
SF-539 CNS = system: SF-539 CNS
T-47D breast = system: T-47D breast
HT29 colon = system: HT29 colon
NCI-H522 lung = system: NCI-H522 lung
HCT-15 colon = system: HCT-15 colon
SW-620 colon = system: SW-620 colon
SNB-19 CNS = system: SNB-19 CNS
MDA-MB-468 breast = system: MDA-MB-468 breast
OVCAR-3 ovarian = system: OVCAR-3 ovarian
UACC-62 melanoma = system: UACC-62 melanoma
NCI-H460 lung = system: NCI-H460 lung
OVCAR-8 ovarian = system: OVCAR-8 ovarian
SNB-75 CNS = system: SNB-75 CNS
DU-145 prostate = system: DU-145 prostate
SF-295 CNS = system: SF-295 CNS
NCI/ADR-RES ovarian = system: NCI/ADR-RES ovarian
U251 CNS = system: U251 CNS
UO-31 renal = system: UO-31 renal
MDA-MB-231 breast = system: MDA-MB-231 breast
786-0 renal = system: 786-0 renal
HOP-62 NSCLC = system: HOP-62 NSCLC
HS 578T breast = system: HS 578T breast
SK-MEL-5 melanoma = system: SK-MEL-5 melanoma

`CCCCNC(=S)Nc1ccc(OCc2nc3ccc(Cl)cc3[nH]2)cc1` was tested, and the GI50 (SK-OV-3 ovarian) was 14.8 µM, the TGI (SK-OV-3 ovarian) was 28.6 µM and the GI50 (HCT-116 colon) was 4.54 µM. It also gave a TGI (HCT-116 colon) of 19.7 µM, a GI50 (CAKI-1 renal) of 4.42 µM and a TGI (CAKI-1 renal) of 18.3 µM. The GI50 (A498 renal) was 12.1 µM, the TGI (A498 renal) was 24.9 µM and the GI50 (NCI-H226 lung) was 9.57 µM. The TGI (NCI-H226 lung) was 26.4 µM, the GI50 (SR leukemia) was 2.91 µM and the TGI (SR leukemia) was 17.4 µM. It also gave a GI50 (NCI-H23 lung) of 10.5 µM, a TGI (NCI-H23 lung) of 23.5 µM and a GI50 (SF-539 CNS) of 11.5 µM. The TGI (SF-539 CNS) was 23.6 µM, the GI50 (T-47D breast) was 6.06 µM and the TGI (T-47D breast) was 20.5 µM. The GI50 (HT29 colon) was 10.7 µM, the TGI (HT29 colon) was 24.6 µM and the GI50 (NCI-H522 lung) was 3.07 µM. It also gave a TGI (NCI-H522 lung) of 14.8 µM, a GI50 (HCT-15 colon) of 4.59 µM and a TGI (HCT-15 colon) of 17.9 µM. The GI50 (SW-620 colon) was 11.9 µM, the TGI (SW-620 colon) was 30.7 µM and the GI50 (SNB-19 CNS) was 12.8 µM. It also gave a TGI (SNB-19 CNS) of 25.4 µM, a GI50 (MDA-MB-468 breast) of 2.45 µM and a TGI (MDA-MB-468 breast) of 12.4 µM. It also gave a GI50 (OVCAR-3 ovarian) of 4.65 µM, a TGI (OVCAR-3 ovarian) of 19 µM and a GI50 (UACC-62 melanoma) of 9.83 µM. The TGI (UACC-62 melanoma) was 21.7 µM, the GI50 (NCI-H460 lung) was 10.2 µM and the TGI (NCI-H460 lung) was 27.8 µM. It also gave a GI50 (OVCAR-8 ovarian) of 12.4 µM, a TGI (OVCAR-8 ovarian) of 25.9 µM and a GI50 (SNB-75 CNS) of 3.48 µM. It also gave a TGI (SNB-75 CNS) of 18.1 µM, a GI50 (DU-145 prostate) of 12.9 µM and a TGI (DU-145 prostate) of 26 µM. It also gave a GI50 (SF-295 CNS) of 6.92 µM, a TGI (SF-295 CNS) of 20.6 µM and a GI50 (NCI/ADR-RES ovarian) of 5.73 µM. For the same compound, the TGI (NCI/ADR-RES ovarian) was 23.4 µM, the GI50 (U251 CNS) was 13.1 µM and the TGI (U251 CNS) was 26.4 µM. For the same compound, the GI50 (UO-31 renal) was 3.46 µM, the TGI (UO-31 renal) was 16.2 µM and the GI50 (MDA-MB-231 breast) was 9.9 µM. For the same compound, the TGI (MDA-MB-231 breast) was 22.1 µM, the GI50 (786-0 renal) was 2.67 µM and the TGI (786-0 renal) was 10.1 µM. The GI50 (HOP-62 NSCLC) was 13.9 µM, the TGI (HOP-62 NSCLC) was 27.3 µM and the GI50 (HS 578T breast) was 10.7 µM. It also gave a TGI (HS 578T breast) of 38.6 µM and a GI50 (SK-MEL-5 melanoma) of 11.9 µM.
